A short description of this test: Fluorimetric response of arsenical dye upon introduction of TSH2 (liquid-liquid method). An excerpt: When unbound, FlAsH-EDT2 is virtually non-fluorescent. Upon binding of four sulfur atoms, free rotation about the As—C bond is restricted, and the dye becomes brightly fluorescent. Since this visualization method labels proteins inside of cells with low background fluorescence, we hypothesized that this molecular sensor could detect the parasite metabolite without interference from other thiols present in biological fluids. The binding of two molecules of TSH2 should prevent the free rotation about the As—C bond in FlAsH, causing a fluorimetric response.
FlAsH-EDT2 was virtually non-fluorescent, but upon introduction of TSH2, the fluorescence intensity rose. After approximately 10 minutes, the reaction reached saturation. […] The excitation and emission maxima for the conjugate were 505 nm and 527 nm respectively. This increase in fluorescence is readily detectable without a fluorimeter using a simple handheld black light such as those used at airport security checkpoints. This detection method could be implemented easily in a low technology, resource poor setting. We examined the limits of detection of the metabolite with FlAsH-EDT2. In our liquid-liquid method, a 10-fold excess of the metabolite is sufficient to observe a fluorimetric response within twenty minutes. Therefore, 2.5 nmol of the dye can be used to detect 25 nmol of the metabolite. While lower concentrations were detectable using a fluorimeter, the conjugation was too slow to be practical. However, FlAsH-EDT2 was not designed and is not optimized for this purpose, and it requires two molecules of TSH2 to bind in order to achieve the desired fluorescence response.

As to `O=C(O)c1ccccc1-c1c2ccc(=O)c([As]3SCCS3)c-2oc2c([As]3SCCS3)c(O)ccc12` [FlAsH-EDT2], the “amount of metabolite detected (limit of detection)” value (2.5 nmol of the dye, liquid-liquid method) worked out at 25 nmol. Further, the “time until the reaction reached saturation” value (after introduction of TSH2) is given as “approximately 10 minutes”. Also, the “excess of the metabolite sufficient to observe a fluorimetric response” value (liquid-liquid method, response within twenty minutes) stood at 10 fold. For the setting “normalized fluorescence measurements”, the “fluorescence of unbound dye as % of the fluorescence of the FlAsH-(TSH2)2 conjugate” value was 0.4%.
